Here are results for two compounds from ChEMBL document CHEMBL4364295, “Discovery of a First-in-Class Receptor Interacting Protein 2 (RIP2) Kinase Specific Clinical Candidate, 2-((4-(Benzo[d]thiazol-5-ylamino)-6-(tert-butylsulfonyl)quinazolin-7-yl)oxy)ethyl Dihydrogen Phosphate, for the Treatment of Inflammatory Diseases” (J Med Chem, 2019).

The structures appear in SMILES notation.

A short description of data set [1]: Clearance in Sprague-Dawley rat at 2 mg/kg, po or 0.5 mg/kg, iv by LC/MS/MS analysis. To be noted: in vivo. The data set is classed as ADME, organism-based.
The nature of data set [2]: AUC in Sprague-Dawley rat at 2 mg/kg, po by LC/MS/MS analysis. The data set is classed as ADME, organism-based. To be noted: in vivo.
The target in data set [3] is T1, Receptor-interacting serine/threonine-protein kinase 2 (Homo sapiens, UniProt O43353). Description: Inhibition of fluorescent-labelled ligand binding to human RIP2K preincubated for 10 mins followed by fluorescent-labelled ligand addition and measured after 10 mins by fluorescence polarization assay. Background: In fluorescence polarisation assays a small probe gives low polarisation when free and higher when bound to something large.
T1 sequence (O43353 whole entry): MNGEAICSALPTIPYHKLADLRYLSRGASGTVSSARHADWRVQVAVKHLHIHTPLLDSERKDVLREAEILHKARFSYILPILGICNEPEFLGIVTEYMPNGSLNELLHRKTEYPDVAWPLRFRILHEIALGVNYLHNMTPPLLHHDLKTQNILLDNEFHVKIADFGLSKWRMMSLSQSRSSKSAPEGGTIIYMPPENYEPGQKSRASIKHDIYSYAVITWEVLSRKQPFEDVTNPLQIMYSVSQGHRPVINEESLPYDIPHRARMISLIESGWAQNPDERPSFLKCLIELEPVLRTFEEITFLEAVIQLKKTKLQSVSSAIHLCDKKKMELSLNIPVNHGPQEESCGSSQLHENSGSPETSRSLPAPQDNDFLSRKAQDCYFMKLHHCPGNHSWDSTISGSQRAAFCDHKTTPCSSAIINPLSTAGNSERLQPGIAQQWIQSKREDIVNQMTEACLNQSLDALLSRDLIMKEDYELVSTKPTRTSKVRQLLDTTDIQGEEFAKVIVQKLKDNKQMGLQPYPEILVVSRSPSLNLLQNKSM

In data set [4] the target is Tyrosine-protein kinase ABL2 (Homo sapiens) (UniProt P42684). Description: Inhibition of human ABL2 at 1 uM using EAIYAAPFAKKK as substrate in presence of [gamma-33P]ATP relative to control.
Chain of Tyrosine-protein kinase ABL2 (Homo sapiens) (P42684 whole entry): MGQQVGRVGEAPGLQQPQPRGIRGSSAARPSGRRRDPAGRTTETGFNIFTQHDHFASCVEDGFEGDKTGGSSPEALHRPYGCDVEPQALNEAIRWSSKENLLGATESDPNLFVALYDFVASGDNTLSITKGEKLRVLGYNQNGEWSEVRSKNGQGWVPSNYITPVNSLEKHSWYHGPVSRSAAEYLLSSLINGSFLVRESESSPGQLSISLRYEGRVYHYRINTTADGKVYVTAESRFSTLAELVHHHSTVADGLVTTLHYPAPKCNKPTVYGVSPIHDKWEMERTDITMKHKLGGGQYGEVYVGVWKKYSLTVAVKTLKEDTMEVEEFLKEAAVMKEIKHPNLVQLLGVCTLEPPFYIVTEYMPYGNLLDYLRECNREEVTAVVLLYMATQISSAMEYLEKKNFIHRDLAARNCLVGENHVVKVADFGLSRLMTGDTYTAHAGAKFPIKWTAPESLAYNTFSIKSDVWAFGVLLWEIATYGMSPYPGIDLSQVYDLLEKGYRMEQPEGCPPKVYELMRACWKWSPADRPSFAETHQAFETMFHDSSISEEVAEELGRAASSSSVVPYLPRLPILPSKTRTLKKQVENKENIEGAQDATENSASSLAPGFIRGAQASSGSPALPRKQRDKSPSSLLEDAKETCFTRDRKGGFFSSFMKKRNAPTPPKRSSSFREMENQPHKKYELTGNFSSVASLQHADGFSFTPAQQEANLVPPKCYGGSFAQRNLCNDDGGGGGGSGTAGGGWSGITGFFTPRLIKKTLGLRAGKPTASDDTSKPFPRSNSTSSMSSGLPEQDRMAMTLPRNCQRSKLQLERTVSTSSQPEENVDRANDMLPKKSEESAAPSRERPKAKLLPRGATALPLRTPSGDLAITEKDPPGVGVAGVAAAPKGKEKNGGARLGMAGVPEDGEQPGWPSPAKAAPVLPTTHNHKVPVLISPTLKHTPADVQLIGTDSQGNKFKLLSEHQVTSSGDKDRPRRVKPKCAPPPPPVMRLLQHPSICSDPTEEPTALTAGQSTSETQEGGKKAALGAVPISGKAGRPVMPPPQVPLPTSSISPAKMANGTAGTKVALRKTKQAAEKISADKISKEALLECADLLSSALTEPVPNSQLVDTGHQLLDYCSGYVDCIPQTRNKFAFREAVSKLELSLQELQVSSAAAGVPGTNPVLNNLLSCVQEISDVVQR
Data set [5] concerns the target T1, Receptor-interacting serine/threonine-protein kinase 2. Description: Inhibition of RIPK2 in human whole blood assessed as reduction in MDP-induced TNFalpha production preincubated for 30 mins followed by MDP-stimulation and measured after 6 hrs by immunoassay. The data set is classed as tissue-based.
A short description of data set [6]: Terminal half life in Sprague-Dawley rat at 2 mg/kg, po or 0.5 mg/kg, iv by LC/MS/MS analysis. To be noted: in vivo, read-out: beta t1/2 (converted). The data set is classed as ADME, organism-based.
The next data set concerns the target Toll-like receptor 4 (Homo sapiens, UniProt O00206). Description: Inhibition of TLR4 in human monocytes assessed as reduction in LPS-induced TNFalpha production. The data set is classed as cell-based.
The nature of data set [7]: Cmax in Sprague-Dawley rat at 2 mg/kg, po by LC/MS/MS analysis. The data set is classed as ADME, organism-based. Details: dose 2 mg/kg, route oral; call rule not given here. The settings on record: in vivo.
A short description of data set [8]: Inhibition of TNFR in human monocytes assessed as reduction in TNFalpha-induced IL8 production. The data set is classed as cell-based.
A short description of data set [9]: Clearance in dog hepatocytes. The data set is classed as ADME, cell-based, Canis lupus familiaris, Hepatocyte.
The subject of data set [10] is Intestinal mucosa. Put plainly: Antiinflammatory activity in ulcerative colitis patient derived inflamed intestinal mucosa assessed as reduction in IL6 production measured after overnight incubation by immunoassay. The data set is classed as functional, tissue-based. To be noted: Homo sapiens.
Data set [11] is described as follows: Clearance in rat hepatocytes. The data set is classed as ADME, cell-based, Hepatocyte.
A short description of data set [12]: Dose normalized AUC in Sprague-Dawley rat at 200 mg/kg, po using crystalline sample during 7 day dose ranging study by LC/MS/MS analysis. The data set is classed as ADME, organism-based. To be noted: in vivo, 168 h.
For data set [13], the system named is Intestinal mucosa. Put plainly: Antiinflammatory activity in crohn's disease patient derived inflamed intestinal mucosa assessed as reduction in IL1beta production measured after overnight incubation by immunoassay. The data set is classed as functional, tissue-based. To be noted: Homo sapiens.
Data set [14] has as its target Serine/threonine-protein kinase 10 (Homo sapiens) (UniProt O94804). Description: Inhibition of human STK10 at 1 uM using RLGRDKYKTLRQIRQ as substrate in presence of [gamma-33P]ATP relative to control.
In data set [15] the test system is Intestinal mucosa. Put plainly: Antiinflammatory activity in ulcerative colitis patient derived inflamed intestinal mucosa assessed as reduction in IL1beta production measured after overnight incubation by immunoassay. The data set is classed as functional, tissue-based. The settings on record: Homo sapiens.
Data set [16] is described as follows: Clearance in human hepatocytes. The data set is classed as ADME, cell-based, Hepatocyte.
Data set [17] in a line: AUC in Sprague-Dawley rat at 60 mg/kg, po using crystalline sample during 7 day dose ranging study by LC/MS/MS analysis. The data set is classed as ADME, organism-based. To be noted: in vivo.
Data set [18] is described as follows: AUC in Sprague-Dawley rat at 200 mg/kg, po using crystalline sample during 7 day dose ranging study by LC/MS/MS analysis. The data set is classed as ADME, organism-based. The settings on record: in vivo.
Data set [19] is described as follows: Unbound fraction in dog blood. The data set is classed as ADME, tissue-based, Canis lupus familiaris.
Data set [20] in a line: Prodrug conversion in minipig hepatocytes assessed as hydrogenation at 20 uM measured after 4 hrs. To be noted: pig. The data set is classed as ADME, cell-based, Sus scrofa, Hepatocyte.
Data set [21] is described as follows: Prodrug conversion in human hepatocytes assessed as (2S,3S,4S,5R,6R)-6-(2-(4-(benzo[d]thiazol-5-ylamino)-6-(tert-butylsulfonyl)quinazolin-7-yloxy)ethoxy)-3,4,5-trihydroxytetrahydro-2H-pyran-2-carboxylic acid formation at 20 uM measured after 4 hrs. The data set is classed as ADME, cell-based, Hepatocyte.
Data set [22] is described as follows: Prodrug conversion in Sprague-Dawley rat intestine assessed as 2-((4-(Benzo[d]thiazol-5-ylamino)-6-(tert-butylsulfonyl)quinazolin-7-yl)oxy)ethanol formation at 2 mg/kg, po or 0.5 mg/kg, iv measured at 15 to 120 mins post dose. The data set is classed as ADME, organism-based. To be noted: in vivo.
The nature of data set [23]: Oral bioavailability in Beagle dog assessed as 2-((4-(Benzo[d]thiazol-5-ylamino)-6-(tert-butylsulfonyl)quinazolin-7-yl)oxy)ethanol level at 2 mg/kg by LC/MS/MS analysis. The settings on record: in vivo. The data set is classed as ADME, organism-based, Canis lupus familiaris.
The nature of data set [24]: Cmax in Gottingen minipig assessed as 2-((4-(Benzo[d]thiazol-5-ylamino)-6-(tert-butylsulfonyl)quinazolin-7-yl)oxy)ethanol level at 1 mg/kg, po by LC/MS/MS analysis. The data set is classed as ADME, organism-based, Sus scrofa. Details: dose 1 mg/kg, route oral. To be noted: pig, in vivo.
Data set [25] in a line: Prodrug conversion in rat hepatocytes assessed as benzothiazole ring opening at 20 uM measured after 4 hrs. The data set is classed as ADME, cell-based, Hepatocyte.
A short description of data set [26]: Cmax in Beagle dog assessed as 2-((4-(Benzo[d]thiazol-5-ylamino)-6-(tert-butylsulfonyl)quinazolin-7-yl)oxy)ethanol level at 2 mg/kg, po by LC/MS/MS analysis. The data set is classed as ADME, organism-based, Canis lupus familiaris. Details: dose 2 mg/kg, route oral. To be noted: in vivo.
Data set [27] in a line: Drug uptake in Han Wistar rat eye at 2 mg/kg, iv administered as infusion for 4 hrs. The data set is classed as ADME, organism-based. To be noted: in vivo.
A short description of data set [28]: Half life in human blood. The data set is classed as ADME, tissue-based.
Data set [29] in a line: Volume of distribution at steady state in Beagle dog assessed as 2-((4-(Benzo[d]thiazol-5-ylamino)-6-(tert-butylsulfonyl)quinazolin-7-yl)oxy)ethanol level at 2 mg/kg, po or 0.9 mg/kg, iv by LC/MS/MS analysis. The data set is classed as ADME, organism-based, Canis lupus familiaris. The settings on record: in vivo.
In another data set the target is Cytochrome P450 3A4 (Homo sapiens, UniProt P08684). Description: Inhibition of CYP3A4 (unknown origin). The data set is classed as ADME.
Chain of Cytochrome P450 3A4 (P08684 whole entry, the tested form may be a part): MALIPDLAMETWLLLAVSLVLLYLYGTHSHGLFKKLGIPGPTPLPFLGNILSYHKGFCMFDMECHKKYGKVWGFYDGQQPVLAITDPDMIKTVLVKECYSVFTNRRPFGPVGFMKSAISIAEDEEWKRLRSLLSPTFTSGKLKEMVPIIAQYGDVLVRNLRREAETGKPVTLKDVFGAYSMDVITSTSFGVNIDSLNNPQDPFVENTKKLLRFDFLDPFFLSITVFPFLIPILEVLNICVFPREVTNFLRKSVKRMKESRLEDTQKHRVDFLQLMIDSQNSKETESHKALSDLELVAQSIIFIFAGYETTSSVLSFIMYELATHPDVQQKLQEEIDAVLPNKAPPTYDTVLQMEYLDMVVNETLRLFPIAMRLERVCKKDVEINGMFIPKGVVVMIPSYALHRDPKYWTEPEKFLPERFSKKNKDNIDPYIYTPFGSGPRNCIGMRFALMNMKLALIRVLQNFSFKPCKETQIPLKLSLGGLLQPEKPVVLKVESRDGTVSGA
The nature of data set [30]: Drug uptake in Han Wistar rat colon at 2 mg/kg, iv administered as infusion for 4 hrs. The data set is classed as ADME, organism-based. To be noted: in vivo.
Data set [31] can be described thus: Prodrug conversion in Han Wistar rat eye assessed as 2-((4-(Benzo[d]thiazol-5-ylamino)-6-(tert-butylsulfonyl)quinazolin-7-yl)oxy)ethanol formation at 2 mg/kg, iv administered as infusion for 4 hrs. The data set is classed as ADME, organism-based. To be noted: in vivo.
The nature of data set [32]: Oral bioavailability in Gottingen minipig assessed as 2-((4-(Benzo[d]thiazol-5-ylamino)-6-(tert-butylsulfonyl)quinazolin-7-yl)oxy)ethanol level at 1 mg/kg by LC/MS/MS analysis. The data set is classed as ADME, organism-based, Sus scrofa. The settings on record: pig, in vivo.
Data set [33] can be described thus: Solubility of the compound in FeSSIF. The data set is classed as physicochemical. To be noted: simulated gi fluid.
Data set [34] can be described thus: AUC in Gottingen minipig assessed as 2-((4-(Benzo[d]thiazol-5-ylamino)-6-(tert-butylsulfonyl)quinazolin-7-yl)oxy)ethanol level at 1 mg/kg, po by LC/MS/MS analysis. The settings on record: pig, in vivo. The data set is classed as ADME, organism-based, Sus scrofa.
The nature of data set [35]: Prodrug conversion in Han Wistar rat colon assessed as 2-((4-(Benzo[d]thiazol-5-ylamino)-6-(tert-butylsulfonyl)quinazolin-7-yl)oxy)ethanol formation at 2 mg/kg, iv administered as infusion for 4 hrs. The data set is classed as ADME, organism-based. To be noted: in vivo.
The nature of data set [36]: Prodrug conversion in rat hepatocytes assessed as 2-(4-(benzo[d]thiazol-5-ylamino)-6-(tert-butylsulfonyl)quinazolin-7-yloxy)acetic acid formation at 20 uM measured after 4 hrs. The data set is classed as ADME, cell-based, Hepatocyte.
Data set [37] is described as follows: Prodrug conversion in minipig hepatocytes assessed as dephosphorylation at 20 uM measured after 4 hrs. The data set is classed as ADME, cell-based, Sus scrofa, Hepatocyte. The settings on record: pig.
A short description of data set [38]: Half life in dog blood. The data set is classed as ADME, tissue-based, Canis lupus familiaris.
Data set [39] in a line: Drug uptake in Han Wistar rat skin at 2 mg/kg, iv administered as infusion for 4 hrs. The data set is classed as ADME, organism-based, Zone of skin. To be noted: in vivo.
The nature of data set [40]: Prodrug conversion in rat hepatocytes assessed as dephosphorylation at 20 uM measured after 4 hrs. The data set is classed as ADME, cell-based, Hepatocyte.

Chain of Toll-like receptor 4 (O00206 whole entry): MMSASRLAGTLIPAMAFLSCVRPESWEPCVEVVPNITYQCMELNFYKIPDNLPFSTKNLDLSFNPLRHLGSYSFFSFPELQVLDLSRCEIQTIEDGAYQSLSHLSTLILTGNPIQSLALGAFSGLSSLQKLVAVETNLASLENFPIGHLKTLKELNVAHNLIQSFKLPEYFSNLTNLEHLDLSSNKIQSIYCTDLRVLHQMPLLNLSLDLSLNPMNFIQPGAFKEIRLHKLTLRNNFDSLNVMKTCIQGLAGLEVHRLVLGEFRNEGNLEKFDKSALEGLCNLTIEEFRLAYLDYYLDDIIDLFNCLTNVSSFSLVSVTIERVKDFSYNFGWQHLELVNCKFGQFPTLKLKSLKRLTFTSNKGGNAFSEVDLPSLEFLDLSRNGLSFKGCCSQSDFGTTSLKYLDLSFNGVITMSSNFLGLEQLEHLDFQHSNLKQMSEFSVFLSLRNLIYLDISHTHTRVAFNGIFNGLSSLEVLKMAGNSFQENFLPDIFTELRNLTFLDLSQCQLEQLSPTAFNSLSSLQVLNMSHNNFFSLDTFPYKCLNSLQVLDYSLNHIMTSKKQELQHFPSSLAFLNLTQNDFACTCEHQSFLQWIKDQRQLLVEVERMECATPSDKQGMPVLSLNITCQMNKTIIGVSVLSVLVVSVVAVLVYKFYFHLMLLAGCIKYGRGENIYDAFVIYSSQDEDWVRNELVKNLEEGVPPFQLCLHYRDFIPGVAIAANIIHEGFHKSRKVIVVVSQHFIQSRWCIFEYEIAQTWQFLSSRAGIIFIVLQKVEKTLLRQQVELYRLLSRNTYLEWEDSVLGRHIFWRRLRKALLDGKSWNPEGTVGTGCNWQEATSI
Chain of Serine/threonine-protein kinase 10 (Homo sapiens) (O94804 whole entry, looked up): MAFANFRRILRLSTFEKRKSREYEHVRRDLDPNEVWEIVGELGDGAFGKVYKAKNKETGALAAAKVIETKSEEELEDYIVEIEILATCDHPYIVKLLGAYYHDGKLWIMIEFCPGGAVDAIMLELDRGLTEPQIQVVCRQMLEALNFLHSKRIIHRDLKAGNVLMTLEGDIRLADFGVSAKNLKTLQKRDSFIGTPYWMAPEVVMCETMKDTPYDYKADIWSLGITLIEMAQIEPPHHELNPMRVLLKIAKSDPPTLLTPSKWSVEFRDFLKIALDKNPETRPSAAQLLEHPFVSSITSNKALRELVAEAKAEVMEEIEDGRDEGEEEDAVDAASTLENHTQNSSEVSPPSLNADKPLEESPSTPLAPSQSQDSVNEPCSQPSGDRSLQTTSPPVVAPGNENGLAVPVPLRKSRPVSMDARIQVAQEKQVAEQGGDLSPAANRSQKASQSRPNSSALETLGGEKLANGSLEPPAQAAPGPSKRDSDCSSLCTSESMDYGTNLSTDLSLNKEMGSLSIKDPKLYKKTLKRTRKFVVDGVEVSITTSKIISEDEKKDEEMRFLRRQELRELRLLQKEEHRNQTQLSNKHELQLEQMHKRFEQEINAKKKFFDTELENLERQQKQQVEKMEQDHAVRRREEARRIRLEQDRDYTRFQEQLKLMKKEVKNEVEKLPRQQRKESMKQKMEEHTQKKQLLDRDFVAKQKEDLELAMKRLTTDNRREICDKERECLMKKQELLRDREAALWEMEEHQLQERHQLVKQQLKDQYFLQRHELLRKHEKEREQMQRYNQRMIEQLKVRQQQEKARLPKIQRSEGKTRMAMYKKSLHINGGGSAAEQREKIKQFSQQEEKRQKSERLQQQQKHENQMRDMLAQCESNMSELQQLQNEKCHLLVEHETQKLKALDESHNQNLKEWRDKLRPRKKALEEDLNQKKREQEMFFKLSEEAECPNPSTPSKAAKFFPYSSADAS

Regarding `CC(C)(C)S(=O)(=O)c1cc2c(Nc3ccc4scnc4c3)ncnc2cc1OCCO`, in data set [1], the clearance came to 27 mL/min/kg. Further, the AUC (usually concentration integrated over time) in [2] is 460 ng·h/mL. The IC50 (usually the point on the concentration scale where inhibition reaches its midpoint) in [3] is 5 nM; in [5], 26 nM; on Toll-like receptor 4 it was over 10000 nM; in [8], over 10000 nM; in the data set with Intestinal mucosa [10] it was 10 nM; in the data set with Intestinal mucosa [13] it was 10 nM. The half-inhibitory concentration (IC50) with Intestinal mucosa [15] was found to be 10 nM. The inhibition in data set [4] and in data set [14] was 70 to 90% in each case. Moreover, the half-life in data set [6] is 264 min. In addition, in data set [7], the Cmax (as a rule, the highest concentration seen after dosing) is 120 ng/mL. Also, the CLH in data set [9] was 0.65 mL/min/g; in data set [11], under 0.48 mL/min/g; in [16] it was under 0.48 mL/min/g. Besides, the Activity result in the data set with Intestinal mucosa [10], with Intestinal mucosa [13] and in the data set on Intestinal mucosa [15] was “Dose-dependent effect” in each case. This compound also came in with an AUC/dose in [12] of 0.21 kg·h/L. The AUC at 168 h in data set [17] came to 23400 ng·h/mL; in data set [18], 41400 ng·h/mL. Further, the fraction unbound (as a rule, free concentration divided by total concentration) in data set [19] was 0.089.
In the case of `CC(C)(C)S(=O)(=O)c1cc2c(Nc3ccc4scnc4c3)ncnc2cc1OCCOP(=O)(O)O.[CaH2]`, the Drug metabolism result in data set [20], in data set [21], in data set [22], in [25], in data set [31] and in data set [35] was “Metabolite_Detected” throughout. For the same compound, the Drug metabolism result in data set [36], in [37] and in [40] was “Metabolite_Detected” throughout. Besides, the F came to 100% in data set [23] and 58% in data set [32]. Moreover, the Cmax in data set [24] amounted to 340 ng/mL; in [26] it was 840 ng/mL. For the same compound, the Drug uptake result in data set [27], in [30] and in data set [39] was “Not Active” in each case. Besides, the half-life in [28] is 25 min; in data set [38], 21 min. The Vdss in data set [29] worked out at 2 L/kg. In addition, the IC50 at Cytochrome P450 3A4 is over 30000 nM. Moreover, the solubility result in [33] was “Soluble”. Also, in data set [34], the AUC was 1100 ng·h/mL.
